In brackets after ≈: the same amount, converted by molar mass. Non-standard residues stand in square brackets, D forms with d. Residues, ends and D or L forms follow the SMILES beside them. dDab = NCC[C@@H](N)C(=O)O; Orn = NCCC[C@H](N)C(=O)O; Dab = NCC[C@H](N)C(=O)O; Nva = CCC[C@H](N)C(=O)O; Aib = CC(C)(N)C(=O)O
Experiments:
[1] = tested on: P. aeruginosa ATCC 27853; format: cell-based, Pseudomonas aeruginosa; details: ATCC 27853
Procedure: (§1) The selective antimicrobial activities of the peptides were determined in 96-well plates (Nunclon polystyrene) by the standard NCCLS broth microdilution method (see ref 1, below) with slight modifications. Innocula of the microorganisms were diluted into Mueller-Hinton (MH) broth+0.02% BSA and compared with a 0.5 Mcfarland standard to give appr. 10^6 colony forming units (CFU)/ml. Aliquots (50 μl) of inoculate were added to 50 μl of MH broth+0.02% BSA containing the peptide in serial two-fold dilutions. The following microorganisms were used to determine antibiotic selectivity of the peptides: Escherichia coli (ATCC 25922), Pseudomonas aeruginosa (P. aeruginosa ATCC 27853, P8191900, P1021903, P1021913, IMP 1 Livermore 3140).

[2] = tested on: Pseudomonas aeruginosa IMP 1 Livermore 3140; format: cell-based; details: IMP 1 Livermore 3140
Procedure: as §1

[3] = tested on: Pseudomonas aeruginosa P1021903; format: cell-based; details: P1021903
Procedure: as §1

[4] = tested on: Pseudomonas aeruginosa P1021913; format: cell-based; details: P1021913
Procedure: as §1

[5] = tested on: Pseudomonas aeruginosa P8191900; format: cell-based; details: P8191900
Procedure: as §1

[6] = tested on: HELA cells (Acc57); assay: Cytotoxicity assay, MTT reduction (LC 50, GI 50); format: cell-based
Procedure: The cytotoxicity of the peptides to HELA cells (Acc57) and COS-7 cells (CRL-1651) was determined using the MIT reduction assay [see ref. 2 and 3, below]. Briefly the method was as follows: HELA cells and COS-7 cells were seeded at 7.0×10^3 and, respectively, 4.5×10^3 cells per well and grown in 96-well […] plates for 24 hours at 37° C. at 5% CO2. At this point, time zero (Tz) was determined by MTT reduction (see below). The supernatant of the remaining wells was discarded, and fresh medium and the peptides in serial dilutions of 12.5, 25 and 50 μM were dispensed into the wells. Each peptide concentration was assayed in triplicate. Incubation of the cells was continued for 48 hours at 37° C. at 5% CO2. Wells were then washed once with phosphate buffered saline (PBS) and subsequently 100 μl MIT reagent (0.5 mg/ml in medium RPMI1640 and, respectively, DMEM) were added to the wells. This was incubated at 37° C. for 2 hours and subsequently the medium was aspirated and 100 μl isopropanol were added to each well. The absorbance at 595 nm of the solubilized product was measured (OD595peptide). For each concentration averages were calculated from triplicates. The percentage of growth was calculated as follows: (OD595peptide-OD595Tz-OD595Empty well)/(OD595Tz-OD595Empty well)×100% and was plotted for each peptide concentration.
The LC 50 values (Lethal Concentration, defined as the concentration that kills 50% of the cells) were determined for each peptide by using the trend line function of EXCEL (Microsoft Office 2000) for the concentrations (50, 25, 12.5 and 0 μM), the corresponding growth percentages and the value −50, (=TREND(C50:C0,%50:%0,−50)). The GI 50 (Growth Inhibition) concentrations were calculated for each peptide by using a trend line function for the concentrations (50, 25, 12.5 and 0 […]), the corresponding percentages and the value 50, (=TREND (C50:C0,%50:%0,50).

[7] = tested on: human red blood cells (hRBC); assay: Hemolysis; format: cell-based; details: 100
Procedure: Hemolysis of red blood cells is often employed for assessment of toxicity of related compounds such as protegrin or tachyplesin. Values are given as %-lysis of red blood cells observed at a concentration of 100 μg/ml. Typical values determined for cationic peptides such as protegrin and tachyplesin range between 30-40% with average MIC-values of 1-5 μg/ml over a wide range of pathogens.
The peptides were tested for their hemolytic activity against human red blood cells (hRBC). Fresh hRBC were washed three times with phosphate buffered saline (PBS) by centrifugation for 10 min at 2000×g. Peptides at a concentration of 100 μM were incubated with 20% v/v hRBC for 1 hour at 37° C. The final erythrocyte concentration was approximately 0.9×10^9 cells per ml. A value of 0% and, respectively, 100% cell lysis was determined by incubation of the hRBC in the presence of PBS alone and, respectively, 0.1% Triton X-100 in H2O. The samples were centrifuged, the supernatant was 20-fold diluted in PBS buffer and the optical density (OD) of the sample at […] was measured. The 100% lysis value (OD540H20) gave an OD540 of approximately 1.3-1.8. Percent hemolysis was calculated as follows: (OD540peptide/OD540H20)×100%.

[8] = tested on: P. aeruginosa

MIC P. aeruginosa ATCC 27853 [1] | MIC P. aeruginosa IMP1 Livermore 3140 [2] | MIC P. aeruginosa P1021903 [3] | MIC P. aeruginosa P1021913 [4] | MIC P. aeruginosa P8191900 [5] | Average MIC [8] | Compound | Cytotoxicity GI50 Hela cells [6] | Hemolysis at 100 μg/ml [7]
0.03 µg/mL (≈ 0.0193 µM) | 0.10 µg/mL (≈ 0.0642 µM) | 0.03 µg/mL (≈ 0.0193 µM) | 0.10 µg/mL (≈ 0.0642 µM) | 0.05 µg/mL (≈ 0.0321 µM) | 0.06 µg/mL | CC[C@H](C)[C@@H]1NC(=O)[C@H](Cc2ccc(O)cc2)NC(=O)[C@H]([C@@H](C)O)NC(=O)[C@@H]2CCCN2C(=O)[C@H]2CCCN2C(=O)[C@H](CCN)NC(=O)[C@H](C)NC(=O)[C@H](CCN)NC(=O)[C@H](CCN)NC(=O)[C@H](Cc2c[nH]c3ccccc23)NC(=O)[C@H](CCN)NC(=O)[C@H](CCN)NC(=O)[C@H](CCCCN)NC(=O)[C@H](CCN)NC1=O [Example 19] (cyclo(TYI[Dab]K[Dab][Dab]W[Dab][Dab]A[Dab][dP]P)) | 50 µM | 0.2%
0.21 µg/mL (≈ 0.128 µM) | 0.75 µg/mL (≈ 0.458 µM) | 0.40 µg/mL (≈ 0.244 µM) | 0.31 µg/mL (≈ 0.189 µM) | 0.30 µg/mL (≈ 0.183 µM) | 0.40 µg/mL | CC[C@H](C)[C@@H]1NC(=O)[C@H](Cc2c[nH]c3ccccc23)NC(=O)[C@H]([C@@H](C)O)NC(=O)[C@@H]2CCCN2C(=O)[C@H]2CCCN2C(=O)[C@H](CCN)NC(=O)[C@H](CCC(N)=O)NC(=O)[C@H](CCN)NC(=O)[C@H](CCN)NC(=O)[C@H](Cc2c[nH]c3ccccc23)NC(=O)[C@H](CCN)NC(=O)[C@H](CCN)NC(=O)[C@H](CCCCN)NC(=O)[C@H](CCN)NC1=O [Example 13] (cyclo(TWI[Dab]K[Dab][Dab]W[Dab][Dab]Q[Dab][dP]P)) | 50 µM | 0.4%
0.02 µg/mL (≈ 0.0128 µM) | 0.19 µg/mL (≈ 0.121 µM) | 0.02 µg/mL (≈ 0.0128 µM) | 0.13 µg/mL (≈ 0.083 µM) | 0.03 µg/mL (≈ 0.0191 µM) | 0.08 µg/mL | CC[C@H](C)[C@@H]1NC(=O)[C@H](Cc2c[nH]c3ccccc23)NC(=O)[C@H]([C@@H](C)O)NC(=O)[C@@H]2CCCN2C(=O)[C@H]2CCCN2C(=O)[C@H](CCN)NC(=O)[C@H](C)NC(=O)[C@H](CCN)NC(=O)[C@H](CCN)NC(=O)[C@H](Cc2c[nH]c3ccccc23)NC(=O)[C@H](CCN)NC(=O)[C@@H](CCN)NC(=O)[C@H](CCCN)NC(=O)[C@H](CCN)NC1=O [Example 48] (cyclo(TWI[Dab][Orn][dDab][Dab]W[Dab][Dab]A[Dab][dP]P)) | 50 µM | 0.2%
0.05 µg/mL (≈ 0.0311 µM) | 0.43 µg/mL (≈ 0.267 µM) | 0.13 µg/mL (≈ 0.0808 µM) | 0.37 µg/mL (≈ 0.23 µM) | 0.18 µg/mL (≈ 0.112 µM) | 0.23 µg/mL | CCC[C@@H]1NC(=O)[C@H](CCN)NC(=O)[C@H](CCN)NC(=O)[C@H](Cc2c[nH]c3ccccc23)NC(=O)[C@H](CCN)NC(=O)[C@H](CCN)NC(=O)[C@H](CCCCN)NC(=O)[C@H](CCN)NC(=O)[C@H]([C@@H](C)CC)NC(=O)[C@H](Cc2c[nH]c3ccccc23)NC(=O)[C@H]([C@@H](C)O)NC(=O)[C@@H]2CCCN2C(=O)[C@H]2CCCN2C(=O)[C@H](CCN)NC1=O [Example 10] (cyclo(TWI[Dab]K[Dab][Dab]W[Dab][Dab][Nva][Dab][dP]P)) | 50 µM | 0%
0.25 µg/mL (≈ 0.159 µM) | 0.50 µg/mL (≈ 0.318 µM) | 0.125 µg/mL (≈ 0.0795 µM) | 0.50 µg/mL (≈ 0.318 µM) | 0.06 µg/mL (≈ 0.0382 µM) | 0.29 µg/mL | CC[C@H](C)[C@@H]1NC(=O)[C@H](Cc2ccc(O)cc2)NC(=O)[C@H](CC(=O)O)NC(=O)[C@@H]2CCCN2C(=O)[C@H]2CCCN2C(=O)[C@H](CCN)NC(=O)[C@H](C)NC(=O)[C@H](CCN)NC(=O)[C@H](CCN)NC(=O)[C@H](Cc2c[nH]c3ccccc23)NC(=O)[C@H](CCN)NC(=O)[C@@H](CCN)NC(=O)[C@H](CCCCN)NC(=O)[C@H](CCN)NC1=O [Example 42] (cyclo(DYI[Dab]K[dDab][Dab]W[Dab][Dab]A[Dab][dP]P)) | 50 µM | 0.2%
0.09 µg/mL (≈ 0.0556 µM) | 1.00 µg/mL (≈ 0.618 µM) | 0.21 µg/mL (≈ 0.13 µM) | 0.31 µg/mL (≈ 0.192 µM) | 0.40 µg/mL (≈ 0.247 µM) | 0.40 µg/mL | CC[C@H](C)[C@@H]1NC(=O)[C@H](Cc2c[nH]c3ccccc23)NC(=O)[C@H]([C@@H](C)O)NC(=O)[C@@H]2CCCN2C(=O)[C@H]2CCCN2C(=O)[C@H](CCN)NC(=O)[C@H](C)NC(=O)[C@H](CCN)NC(=O)[C@H](CCN)NC(=O)[C@H](Cc2c[nH]c3ccccc23)NC(=O)[C@H](Cc2c[nH]cn2)NC(=O)[C@H](CCN)NC(=O)[C@H](CCCCN)NC(=O)[C@H](CCN)NC1=O [Example 21] (cyclo(TWI[Dab]K[Dab]HW[Dab][Dab]A[Dab][dP]P)) | 50 µM | 0.4%
0.08 µg/mL (≈ 0.0502 µM) | 0.75 µg/mL (≈ 0.47 µM) | 0.21 µg/mL (≈ 0.132 µM) | 0.21 µg/mL (≈ 0.132 µM) | 0.30 µg/mL (≈ 0.188 µM) | 0.31 µg/mL | CC[C@H](C)[C@@H]1NC(=O)[C@H](Cc2c[nH]c3ccccc23)NC(=O)[C@H]([C@@H](C)O)NC(=O)[C@@H]2CCCN2C(=O)[C@H]2CCCN2C(=O)[C@H](CCN)NC(=O)C(C)(C)NC(=O)[C@H](CCN)NC(=O)[C@H](CCN)NC(=O)[C@H](Cc2c[nH]c3ccccc23)NC(=O)[C@H](CCN)NC(=O)[C@H](CCN)NC(=O)[C@H](CCCCN)NC(=O)[C@H](CCN)NC1=O [Example 5] (cyclo(TWI[Dab]K[Dab][Dab]W[Dab][Dab][Aib][Dab][dP]P)) | 50 µM | 0.6%
0.02 µg/mL (≈ 0.0127 µM) | 0.25 µg/mL (≈ 0.158 µM) | 0.03 µg/mL (≈ 0.019 µM) | 0.25 µg/mL (≈ 0.158 µM) | 0.05 µg/mL (≈ 0.0316 µM) | 0.12 µg/mL | CC[C@H](C)[C@@H]1NC(=O)[C@H](Cc2c[nH]c3ccccc23)NC(=O)[C@H]([C@@H](C)O)NC(=O)[C@@H]2CCCN2C(=O)[C@H]2CCCN2C(=O)[C@H](CCN)NC(=O)[C@H](C)NC(=O)[C@H](CCN)NC(=O)[C@H](CCN)NC(=O)[C@H](Cc2c[nH]c3ccccc23)NC(=O)[C@H](CCN)NC(=O)[C@@H](CCN)NC(=O)[C@H](CCCCN)NC(=O)[C@H](CCN)NC1=O [Example 41] (cyclo(TWI[Dab]K[dDab][Dab]W[Dab][Dab]A[Dab][dP]P)) | 50 µM | 0.2%
